Measured values as given in article PMC8748916, “Microbial enzymes induce colitis by reactivating triclosan in the mouse gastrointestinal tract” (Nature Communications, 2022).
Several values for one entry are separate records, joined by “and”; a condition that tells them apart may be missing. Equal values may be shown once.

How the values were obtained:
[1] = test system: enzymes extracted from human fecal samples; experiment: In fimo assay (TCS-G turnover rate by human fecal extracts); type: biochemical; settings: Fig. 3c, replicates 1-3
Method: Fecal extracts were prepared and proteomic analysis was performed exactly as previously described. In total, 10 g of frozen human fecal sample was thawed and added to 25 mL extraction buffer (25 mM HEPES, 25 mM NaCl pH 6.5 with Roche Complete protease inhibitor tablet) and 0.5 g autoclaved garnet beads. The mixture was vortexed until homogenous and centrifuged at low speed (300 × g for 5 min at 4 °C). The supernatant was decanted. In all, 25 mL buffer was added to the pellet and the vortex and centrifugation steps repeated. The supernatants from these steps were then combined and centrifuged at low speed for two more cycles. The resultant supernatant was sonicated twice using 1 s pulses for 1.5 min and the lysate was centrifuged at 17,000 × g for 20 min in a Beckman Coulter J2-HC centrifuge. The decanted lysate was then washed with several exchanges of extraction buffer to remove metabolites and small molecules. Total protein concentration was quantitated using a Bradford assay. The fecal lysate was diluted to 1 mg/mL concentration and snap-frozen in small aliquots.
Reaction mixtures contained 5 µL fecal extract (0.1 mg/mL final), 30 µL TCS-G (200 µM final), and 15 µL assay buffer (25 mM HEPES, 25 mM NaCl, pH 6.5). Reactions were quenched at five time points with 50 µL 25% trichloroacetic acid. Samples were centrifuged 20 min at 16,000 × g in a tabletop centrifuge, and the supernatant was analyzed via the same HPLC method described for the catalytic efficiency assay. Reaction rates were determined by fitting progress curves using linear regression and are expressed as initial turnover rates (µM/s). Controls contained fecal extract that had been heat-killed at 95 °C for 5 min. Reported rates are the average of three biological replicates ±SEM.

[2] = LC-MS/MS of TCS and its metabolites in human stool and urine after use of TCS-containing personal care products; type: in vivo; settings: for TCS metabolites in human stool / TCS metabolites in human urine: Treatment TCS, individual subjects; for average molar concentration ratio: TCS-exposed subjects;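 on Profile in stool (%): molar share of summed TCS plus TCS-G plus TCS-sulfate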;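 on Profile in urine (%): molar share of summed TCS plus TCS-G plus TCS-sulfate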;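 on average molar concentration ratio: molar share of summed TCS plus TCS-G plus TCS-sulfate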
Description: To broaden our understanding of TCS metabolic profiles in the gut, we next analyzed TCS metabolism in human subjects. We utilized urine and stool samples from a previous study in which the recruited human subjects were first subjected to a washout period (no usage of TCS-containing products), then were randomly assigned to two groups that used personal care products like toothpaste with or without TCS for up to four months (see the scheme of the experiment in Fig. 1c)[15]. Previous data had established that humans are primarily exposed to TCS via toothpaste that provides a direct oral route to the gastrointestinal tract[16],[17].

[3] = LC-MS/MS profiling of TCS metabolism in mice (TCS via diet for 4 weeks); settings: for concentration of TCS, TCS-G, TCS-Sulfate: individual mice
[4] = treatment time 0 months (after washout)

## O=C(O)[C@H]1OC(Oc2cc(Cl)ccc2Oc2ccc(Cl)cc2Cl)[C@H](O)[C@@H](O)[C@@H]1O (stereo partly shown) [TCSG]
[1]; human fecal extract sample F2
  TCSG turnover rate: 0.0489 µM/s and 0.0506 µM/s and 0.0488 µM/s
[1]; human fecal extract sample F3
  TCSG turnover rate: 0.0556 µM/s and 0.0559 µM/s and 0.0553 µM/s
[1]; human fecal extract sample F4
  TCSG turnover rate: 0.036 µM/s and 0.0272 µM/s and 0.0271 µM/s
[1]; human fecal extract sample M1
  TCSG turnover rate: 0.063 µM/s and 0.0659 µM/s and 0.0613 µM/s
[1]; human fecal extract sample M2
  TCSG turnover rate: 0.0168 µM/s and 0.0179 µM/s and 0.0157 µM/s
[1]; human fecal extract sample M3
  TCSG turnover rate: 0.0438 µM/s and 0.0439 µM/s and 0.0436 µM/s

## O=S(=O)(O)Oc1cc(Cl)ccc1Oc1ccc(Cl)cc1Cl [TCS-sulfate, triclosan-sulfate]
[2]; TCS-exposed human subjects, n=7 urine samples
  Profile in urine (%): 0.04%
[2]; TCS-exposed human subjects, n=23 stool samples
  Profile in stool (%): 0.0365%
[2]; [4]
  TCS metabolites in human stool: 0.311 pmol/ g stool and < LOD
  TCS metabolites in human urine: 0.071 nM urine and < LOD (3×)
[2]; treatment time 1 month
  TCS metabolites in human stool: 1.344 pmol/ g stool and < LOD (3×) and 0.342 pmol/ g stool and 0.381 pmol/ g stool
  TCS metabolites in human urine: 0.470 nM urine
[2]; treatment time 2 months
  TCS metabolites in human stool: < LOD (4×) and 0.999 pmol/ g stool
  TCS metabolites in human urine: 0.522 nM urine
[2]; treatment time 3 months
  TCS metabolites in human stool: 0.987 pmol/ g stool and < LOD (5×)
  TCS metabolites in human urine: 0.157 nM urine
[2]; treatment time 4 months
  TCS metabolites in human stool: 0.971 pmol/ g stool and < LOD (4×) and 0.236 pmol/ g stool
  TCS metabolites in human urine: 0.257 nM urine and < LOD and 0.689 nM urine and 0.388 nM urine
[2]; human stool
  average molar concentration ratio: 0.0%
[2]; human urine
  average molar concentration ratio: 0.0%
[3]; Bile, 80 ppm TCS via diet 4 weeks
  concentration of TCS, TCS-G, TCS-Sulfate: 93.62 pmol/mg and 49.05 pmol/mg and 43.31 pmol/mg and 67.29 pmol/mg
[3]; Cecum (digesta), 80 ppm TCS via diet 4 weeks
  concentration of TCS, TCS-G, TCS-Sulfate: 0.12 pmol/mg and 0.13 pmol/mg and 0.09 pmol/mg and 0.35 pmol/mg and 0.29 pmol/mg and 0.53 pmol/mg and 0.56 pmol/mg and 0.38 pmol/mg and 0.61 pmol/mg and 0.54 pmol/mg
[3]; Cecum digesta, 1 ppm TCS in diet 4 weeks
  concentration of TCS, TCS-G, TCS-Sulfate: 0 pmol/mg
[3]; Cecum digesta, 10 ppm TCS in diet 4 weeks
  concentration of TCS, TCS-G, TCS-Sulfate: 0.02 pmol/mg and 0 pmol/mg and 0.01 pmol/mg
[3]; Cecum digesta, 80 ppm TCS in diet 4 weeks
  concentration of TCS, TCS-G, TCS-Sulfate: 0.03 pmol/mg and 0.05 pmol/mg and 0.08 pmol/mg and 0.06 pmol/mg and 0.13 pmol/mg
[3]; Colon (digesta), 80 ppm TCS via diet 4 weeks
  concentration of TCS, TCS-G, TCS-Sulfate: 1.16 pmol/mg and 1.00 pmol/mg and 1.32 pmol/mg and 1.31 pmol/mg and 2.15 pmol/mg and 0.67 pmol/mg and 0.75 pmol/mg and 2.57 pmol/mg and 1.48 pmol/mg and 2.39 pmol/mg
[3]; Colon digesta, 1 ppm TCS in diet 4 weeks
  concentration of TCS, TCS-G, TCS-Sulfate: 0 pmol/mg
[3]; Colon digesta, 10 ppm TCS in diet 4 weeks
  concentration of TCS, TCS-G, TCS-Sulfate: 0.2 pmol/mg and 0 pmol/mg and 0.03 pmol/mg and 0.01 pmol/mg and 0.05 pmol/mg and 0.02 pmol/mg
[3]; Colon digesta, 80 ppm TCS in diet 4 weeks
  concentration of TCS, TCS-G, TCS-Sulfate: 0.3 pmol/mg and 0.21 pmol/mg and 0.1 pmol/mg and 0.13 pmol/mg and 0.22 pmol/mg and 0.09 pmol/mg and 0.81 pmol/mg and 0.37 pmol/mg
[3]; Feces, 1 ppm TCS in diet 4 weeks
  concentration of TCS, TCS-G, TCS-Sulfate: 0.05 pmol/mg
[3]; Feces, 10 ppm TCS in diet 4 weeks
  concentration of TCS, TCS-G, TCS-Sulfate: 0.1 pmol/mg and 0.16 pmol/mg
[3]; Feces, 80 ppm TCS in diet 4 weeks
  concentration of TCS, TCS-G, TCS-Sulfate: 3.27 pmol/mg and 1.08 pmol/mg
[3]; Fig. S3b, Cecum, individual mice No. 1-10 per row
  Level in Cecum: 0.53 and 0.56 and 0.38 and 0.61 and 0.54 and 0.12 and 0.13 and 0.09 and 0.35 and 0.29
[3]; Fig. S3b, Colon, individual mice No. 1-10 per row
  Level in Colon: 0.78 and 1.13 and 3.01 and 1.95 and 2.87 and 1.28 and 1 and 1.68 and 1.44 and 2.3
[3]; Fig. S3b, SI 1st section, individual mice No. 1-10 per row
  Level in SI 1st section: 7.35 and 7.33 and 7.48 and 7.82 and 9.31 and 9.27 and 9.71 and 4.38 and 7.68 and 8.04
[3]; Fig. S3b, SI 2nd section, individual mice No. 1-10 per row
  Level in SI 2nd section: 6.24 and 6.6 and 5.34 and 6.55 and 6.34 and 6.37 and 6.86 and 2.98 and 4.48 and 5.78
[3]; Fig. S3b, SI 3rd section, individual mice No. 1-10 per row
  Level in SI 3rd section: 5.62 and 5.7 and 3.67 and 5.46 and 7.7 and 5.86 and 4.93 and 2.15 and 4.34 and 5.06
[3]; Fig. S3b, SI 4th section, individual mice No. 1-10 per row
  Level in SI 4th section: 7.25 and 6.61 and 6.48 and 10.63 and 8.75 and 6.52 and 6.94 and 2.9 and 7.06
[3]; Heart, 80 ppm TCS via diet 4 weeks
  concentration of TCS, TCS-G, TCS-Sulfate: 10.90 pmol/mg and 8.11 pmol/mg and 9.20 pmol/mg and 10.24 pmol/mg
[3]; Liver, 80 ppm TCS via diet 4 weeks
  concentration of TCS, TCS-G, TCS-Sulfate: 37.26 pmol/mg and 31.81 pmol/mg and 21.91 pmol/mg and 24.89 pmol/mg and 30.95 pmol/mg and 12.68 pmol/mg and 35.36 pmol/mg and 32.58 pmol/mg and 32.38 pmol/mg and 20.28 pmol/mg
[3]; SI 1st section (digesta), 80 ppm TCS via diet 4 weeks
  concentration of TCS, TCS-G, TCS-Sulfate: 7.33 pmol/mg and 7.48 pmol/mg and 7.82 pmol/mg and 9.31 pmol/mg
[3]; SI 2nd section (digesta), 80 ppm TCS via diet 4 weeks
  concentration of TCS, TCS-G, TCS-Sulfate: 6.37 pmol/mg and 6.86 pmol/mg and 2.98 pmol/mg and 4.48 pmol/mg and 5.78 pmol/mg and 6.24 pmol/mg and 6.60 pmol/mg and 5.34 pmol/mg and 6.55 pmol/mg and 6.34 pmol/mg
[3]; SI 3rd section (digesta), 80 ppm TCS via diet 4 weeks
  concentration of TCS, TCS-G, TCS-Sulfate: 5.86 pmol/mg and 4.93 pmol/mg and 2.15 pmol/mg and 4.34 pmol/mg and 5.06 pmol/mg and 5.62 pmol/mg and 5.70 pmol/mg and 3.67 pmol/mg and 5.46 pmol/mg and 7.70 pmol/mg
[3]; SI 4th section (digesta), 80 ppm TCS via diet 4 weeks
  concentration of TCS, TCS-G, TCS-Sulfate: 6.52 pmol/mg and 6.94 pmol/mg and 2.90 pmol/mg and 6.61 pmol/mg and 7.06 pmol/mg and 7.25 pmol/mg and 6.48 pmol/mg and 10.63 pmol/mg and 8.75 pmol/mg
[3]; digesta of the 4th section of the mouse small intestine, 80 ppm TCS via diet 4 weeks
  share of TCS metabolites found: 7.7%
[3]; fecal content, 80 ppm TCS via diet 4 weeks
  share of TCS metabolites found: 0.2%
